From article PMC3773341 (Biology Open, 2013) come the findings set out here.

Each structure is given as a SMILES string.

The target of assay [1] is T1, BK channel (large-conductance Ca2+-activated K+ channel, BKCa, KCa1.1) (Homo sapiens, UniProt Q12791).
T1 construct: gene KCNMA1
The assay is described as follows: whole-cell patch clamp of endogenous BK current in LNCaP cells; current identity confirmed by si-hBK. The assay is classed as cell-based.

For assay [2], the target named is T1, BK channel (large-conductance Ca2+-activated K+ channel, BKCa, KCa1.1). The assay is described as follows: whole-cell patch clamp of T-type-activated BK current in LNCaP-α1H cells ([…] in LNCaP-NE cells). The assay is classed as cell-based.

T1 sequence (Q12791 whole entry): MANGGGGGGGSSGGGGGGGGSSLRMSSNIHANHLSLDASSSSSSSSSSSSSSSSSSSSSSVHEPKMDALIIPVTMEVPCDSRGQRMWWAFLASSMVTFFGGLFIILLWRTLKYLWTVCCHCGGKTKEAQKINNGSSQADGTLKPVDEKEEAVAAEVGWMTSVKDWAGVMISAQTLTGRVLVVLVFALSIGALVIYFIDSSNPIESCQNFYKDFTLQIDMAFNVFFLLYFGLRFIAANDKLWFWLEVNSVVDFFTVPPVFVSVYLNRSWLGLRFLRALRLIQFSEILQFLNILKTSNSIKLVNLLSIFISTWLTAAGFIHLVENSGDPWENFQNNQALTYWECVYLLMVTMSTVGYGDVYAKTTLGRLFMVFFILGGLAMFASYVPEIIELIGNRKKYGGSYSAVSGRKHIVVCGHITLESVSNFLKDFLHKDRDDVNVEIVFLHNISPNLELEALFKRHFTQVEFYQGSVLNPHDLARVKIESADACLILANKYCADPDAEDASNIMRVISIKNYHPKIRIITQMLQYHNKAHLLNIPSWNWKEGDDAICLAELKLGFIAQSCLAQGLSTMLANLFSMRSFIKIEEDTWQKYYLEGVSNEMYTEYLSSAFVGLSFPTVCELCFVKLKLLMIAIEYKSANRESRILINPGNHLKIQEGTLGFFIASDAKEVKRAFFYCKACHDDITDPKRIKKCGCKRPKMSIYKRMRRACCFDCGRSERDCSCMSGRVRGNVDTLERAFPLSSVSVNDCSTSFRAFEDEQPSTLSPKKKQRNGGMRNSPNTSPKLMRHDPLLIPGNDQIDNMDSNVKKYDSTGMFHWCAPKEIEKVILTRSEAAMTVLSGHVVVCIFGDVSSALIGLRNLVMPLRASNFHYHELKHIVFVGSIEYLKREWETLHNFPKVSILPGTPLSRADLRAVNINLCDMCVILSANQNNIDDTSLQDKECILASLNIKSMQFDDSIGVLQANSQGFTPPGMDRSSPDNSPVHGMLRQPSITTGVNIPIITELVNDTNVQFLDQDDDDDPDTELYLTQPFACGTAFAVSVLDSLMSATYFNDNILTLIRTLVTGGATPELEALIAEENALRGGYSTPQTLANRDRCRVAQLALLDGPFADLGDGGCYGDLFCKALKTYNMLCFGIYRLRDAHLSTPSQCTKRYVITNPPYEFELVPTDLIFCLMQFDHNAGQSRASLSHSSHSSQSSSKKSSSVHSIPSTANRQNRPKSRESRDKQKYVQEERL

In the case of `CC(C)(O)[C@H]1O[C@H]2CC[C@@]3(C)[C@@](O)(CC[C@H]4Cc5c([nH]c6ccccc56)[C@@]43C)C2=CC1=O` [Pax, paxillin], the “whole-cell patch clamp of endogenous BK current in LNCaP cells; current identity” value in assay [1] is 1 µM.

In the case of `CC[N+](CC)(CC)CC` [TEA, tetraethyl ammonium], the IC50 in assay [2] came to 1140 ± 200 µM.
